Laboratory results published in ChEMBL document CHEMBL1144740, “Structural characterization and DPPH radical scavenging activity of an arabinoglucogalactan from Panax notoginseng root” (J Nat Prod, 2008).

Test: DPPH radical scavenging activity
Type: ADME

| SC50 [µg/mL] | SMILES |
| --- | --- |
| 11.72 | OC[C@@H](O)[C@@H]1O[C@H]2O[C@@H]3[C@@H](O)[C@H](O[C@@H]4[C@@H](O)[C@H](O[C@@H]5[C@@H](O)[C@H](O[C@@H]6[C@@H](O)[C@H](O[C@@H]7[C@@H](O)[C@H](O[C@@H]8[C@@H](O)[C@H](O[C@@H]9[C@@H](O)[C@H](O[C@@H]1[C@H]2O)O[C@H]9[C@H](O)CO)O[C@H]8[C@H](O)CO)O[C@H]7[C@H](O)CO)O[C@H]6[C@H](O)CO[C@@H]1O[C@H](CO)[C@@H](O[C@@H]2O[C@H](CO)[C@@H](O)[C@@H]2O)[C@H](O)[C@H]1O)O[C@H]5[C@H](O)CO)O[C@H]4[C@H](O)CO)O[C@H]3[C@H](O)CO |
| 5.24 | O=C1O[C@H]([C@@H](O)CO)C(O)=C1O [ASCORBIC ACID] |
